Measured values published in ChEMBL document CHEMBL3822373, “An evolved oxazolidinone with selective potency against Mycobacterium tuberculosis and gram positive bacteria” (2016).
Active and inactive are the calls of the source. The rule behind the calls is not given here.

Tested on: Mycobacterium tuberculosis
Experiment: Antibacterial activity against Mycobacterium tuberculosis H37Rv assessed as frequency of spontaneous resistant mutant at 5 and 10 times MIC90 measured after 5 weeks
Assay type: functional, organism-based

Q: For `CC(=O)NC[C@H]1CN(c2ccc3c(c2)Oc2ccccc2O3)C(=O)O1`, which Activity is on record?
A: inactive
